# From patent US20240285785A1, “TARGETING SORTILIN” (priority 2022, published 2024)
# Assay: Murine serum stability assay
# Format: in vitro ADME, mouse (CD-1)
# Settings: male CD-1 mouse serum, 37° C.; listed as Aro-SAR-Q15
# Procedure: Serum was drawn from male CD-1 mice by Pharmidex. Lyophilized peptides were solubilized in DMSO and then further diluted into male mouse (CD-1) serum at 37° C. in duplicates. The reaction was incubated at 37° C. and samples extracted at 6 time points: 0, 0.16, 0.5, 1, 3, and 6 hrs. Acetonitrile (ACN) with internal standard (tolbutamide) was added to stop the incubation. Samples were centrifuged, and the supernatant was analyzed by HPLC-MS/MS for the parent compound.
row,Structure (SMILES),"Murine serum stability assay, T1/2 [min]"
1,CC(C)C[C@H](NC(=O)[C@H](C)NC(=O)[C@@H]1CCCN1C(=O)[C@H](CC(=O)O)NC(=O)[C@H](CCCNC(=N)N)NC(=O)[C@H](CC(C)C)NC(=O)[C@@H]1CCCN1C(=O)[C@H](C)NC(=O)[C@H](CC(=O)O)NC(=O)[C@H](Cc1c[nH]c2ccccc12)NC(=O)[C@H](CCCNC(=N)N)NC(=O)[C@@H]1CCCN1C(=O)[C@H](C)N)C(=O)N[C@@H](CCCNC(=N)N)C(=O)N[C@@H](CCC(N)=O)C(=O)N[C@H](C(=O)N[C@@H](CC1CCC1)C(=O)O)C(C)(C)C [Arb-SAR-Q15],18.92

# Same assay, conditions: male, CD-1, mouse, mouse serum, male CD-1 mouse serum, 37° C.; read-out: Murine serum stability assay, T1/2
row,Structure (SMILES),half-life [min]
1,CC(C)C[C@H](NC(=O)[C@H](C)NC(=O)[C@@H]1CCCN1C(=O)[C@H](CC(=O)O)NC(=O)[C@H](CCCNC(=N)N)NC(=O)[C@H](CC(C)C)NC(=O)[C@@H]1CCCN1C(=O)[C@H](C)NC(=O)[C@H](CC(=O)O)NC(=O)[C@H](Cc1c[nH]c2ccccc12)NC(=O)[C@H](CCCNC(=N)N)NC(=O)[C@@H]1CCCN1C(=O)[C@H](C)N)C(=O)N[C@@H](CCCNC(=N)N)C(=O)N[C@@H](CCC(N)=O)C(=O)N[C@@H](Cc1ccccc1)C(=O)N[C@@H](CC1CCC1)C(=O)O [Arb-SAR-Q7],7.73
2,CC(C)CC[C@H](NC(=O)[C@H](CCC(N)=O)NC(=O)[C@H](CCCNC(=N)N)NC(=O)[C@H](CC(C)C)NC(=O)[C@H](C)NC(=O)[C@@H]1CCCN1C(=O)[C@H](CC(=O)O)NC(=O)[C@H](CCCNC(=N)N)NC(=O)[C@H](CC(C)C)NC(=O)[C@@H]1CCCN1C(=O)[C@H](C)NC(=O)[C@H](CC(=O)O)NC(=O)[C@H](Cc1c[nH]c2ccccc12)NC(=O)[C@H](CCCNC(=N)N)NC(=O)[C@@H]1CCCN1C(=O)[C@H](C)N)C(=O)N[C@@H](CC1CCC1)C(=O)O [Arb-SAR-Q09],11.4
3,CC(C)C[C@H](NC(=O)[C@H](C)NC(=O)[C@@H]1CCCN1C(=O)[C@H](CC(=O)O)NC(=O)[C@H](CCCNC(=N)N)NC(=O)[C@H](CC(C)C)NC(=O)[C@@H]1CCCN1C(=O)[C@H](C)NC(=O)[C@H](CC(=O)O)NC(=O)[C@H](Cc1c[nH]c2ccccc12)NC(=O)[C@H](CCCNC(=N)N)NC(=O)[C@@H]1CCCN1C(=O)[C@H](C)N)C(=O)N[C@@H](CCCNC(=N)N)C(=O)N[C@@H](CCC(N)=O)C(=O)N[C@@H](CC1CC1)C(=O)N[C@@H](CC1CCC1)C(=O)O [Arb-SAR-Q13],14.1
4,CC(C)C[C@H](NC(=O)[C@H](C)NC(=O)[C@@H]1CCCN1C(=O)[C@H](CC(=O)O)NC(=O)[C@H](CCCNC(=N)N)NC(=O)[C@H](CC(C)C)NC(=O)[C@@H]1CCCN1C(=O)[C@H](C)NC(=O)[C@H](CC(=O)O)NC(=O)[C@H](Cc1c[nH]c2ccccc12)NC(=O)[C@H](CCCNC(=N)N)NC(=O)[C@@H]1CCCN1C(=O)[C@H](C)N)C(=O)N[C@@H](CCCNC(=N)N)C(=O)N[C@@H](CCC(N)=O)C(=O)N[C@H](C(=O)N[C@@H](CC1CCC1)C(=O)O)C(C)(C)C [Arb-SAR-Q15],16.9
5,CCCC[C@@H]1NC(=O)[C@@H](NC(=O)[C@H](CCC(N)=O)NC(=O)[C@H](C)NC(C)=O)CSSC[C@@H](C(=O)N[C@@H](CCCNC(=N)N)C(=O)N[C@@H](CCC(N)=O)C(=O)N[C@H](C(=O)N[C@@H](CC(C)(C)C)C(=O)O)C(C)(C)C)NC(=O)[C@H](C)NC(=O)[C@H](CCCNC(=N)N)NC(=O)[C@H](CC(N)=O)NC(=O)[C@H](CCCNC(=N)N)NC(=O)CNC1=O [Arb_cyclic_C5],46.1
6,CC(=O)N[C@@H](Cc1c[nH]cn1)C(=O)N[C@@H](CC(N)=O)C(=O)N[C@@H](Cc1ccccc1)C(=O)N[C@@H](Cc1ccc(O)cc1)C(=O)N[C@H]1CSSC[C@@H](C(=O)N[C@@H](CCC(N)=O)C(=O)N[C@@H](CCCNC(=N)N)C(=O)N[C@@H](CCC(N)=O)C(=O)N[C@H](C(=O)N[C@@H](CC(C)(C)C)C(=O)O)C(C)(C)C)NC(=O)[C@H](Cc2c[nH]cn2)NC(=O)[C@H](CCCCN)NC(=O)[C@H](CCCNC(=N)N)NC1=O [Arb_cyclic_C22],58.8
7,CCCC[C@H](NC(=O)[C@@H]1CSSC[C@H](NC(=O)[C@H](Cc2c[nH]cn2)NC(=O)[C@H](Cc2ccccc2)NC(=O)[C@H](CC(N)=O)NC(=O)[C@H](CCCNC(=N)N)NC(C)=O)C(=O)N[C@@H](CCCNC(=N)N)C(=O)N[C@@H](C)C(=O)N[C@@H](CCC(N)=O)C(=O)N1)C(=O)N[C@@H](CCCNC(=N)N)C(=O)N[C@@H](CCC(N)=O)C(=O)N[C@H](C(=O)N[C@@H](CC(C)(C)C)C(=O)O)C(C)(C)C [Arb_cyclic_D21],13.5
8,CC(=O)N[C@@H](CCC(=O)O)C(=O)N[C@@H](Cc1c[nH]c2ccccc12)C(=O)N[C@H]1CSSC[C@@H](C(=O)N[C@@H](CCCNC(=N)N)C(=O)N[C@@H](CCC(N)=O)C(=O)N[C@H](C(=O)N[C@@H](CC(C)(C)C)C(=O)O)C(C)(C)C)NC(=O)[C@H]([C@@H](C)O)NC(=O)[C@@H]2CCCN2C(=O)[C@H](Cc2c[nH]cn2)NC(=O)[C@H](CC(N)=O)NC(=O)[C@H](Cc2c[nH]cn2)NC(=O)[C@H](CC(C)C)NC(=O)CNC1=O [Arb_cyclic_F3],173
9,CC(=O)N[C@@H](CCCNC(=N)N)C(=O)N[C@@H](CC(=O)O)C(=O)N[C@H]1CSSC[C@@H](C(=O)N[C@@H](CCCNC(=N)N)C(=O)N[C@@H](CCC(N)=O)C(=O)N[C@H](C(=O)N[C@@H](CC(C)(C)C)C(=O)O)C(C)(C)C)NC(=O)[C@@H]2CCCN2C(=O)[C@@H]2CCCN2C(=O)[C@H](C)NC(=O)[C@H](CCCNC(=N)N)NC(=O)[C@H](CC(C)C)NC(=O)[C@H](CO)NC(=O)[C@H](C)NC1=O [Arb_cyclic_G2],20.8
10,CC(=O)N[C@@H](CCCNC(=N)N)C(=O)N[C@@H](CC(=O)O)C(=O)N[C@H]1CSSC[C@@H](C(=O)N[C@@H](CCCNC(=N)N)C(=O)N[C@@H](CCC(N)=O)C(=O)N[C@H](C(=O)N[C@@H](CC(C)(C)C)C(=O)O)C(C)(C)C)NC(=O)[C@H](C(C)C)NC(=O)[C@H](CCCCN)NC(=O)[C@H](C)NC(=O)[C@H](CCCNC(=N)N)NC(=O)[C@H](CC(C)C)NC(=O)[C@H](CO)NC(=O)[C@@H]2CCCN2C1=O [Arb_cyclic_G4],38.5
11,"CCCC[C@@H]1NC(=O)[C@H](CCCNC(=N)N)NC(=O)[C@H](CC(C)C)NC(=O)[C@H](CO)NC(=O)[C@H](C(C)C)NC(=O)[C@@H](NC(=O)[C@H](CC(=O)O)NC(=O)[C@H](CCCNC(=N)N)NC(C)=O)CSSC[C@@H](C(=O)N[C@@H](CCCNC(=N)N)C(=O)N[C@@H](CCC(N)=O)C(=O)N[C@H](C(=O)N[C@@H](CC(C)(C)C)C(=O)O)C(C)(C)C)NC(=O)[C@H](C(C)C)NC(=O)[C@H](Cc2c[nH]cn2)NC1=O [Arb_cyclic_G5, RDCVSLR(Nle)HVCRQ(B13)(F02)]",95.2
12,CC[C@H](C)[C@@H]1NC(=O)[C@@H](NC(=O)CNC(=O)[C@H](CCCNC(=N)N)NC(C)=O)CSSC[C@@H](C(=O)N[C@@H](CCCNC(=N)N)C(=O)N[C@@H](CCC(N)=O)C(=O)N[C@H](C(=O)N[C@@H](CC(C)(C)C)C(=O)O)C(C)(C)C)NC(=O)[C@H](C)NC(=O)[C@H](CC(=O)O)NC(=O)[C@H](CCC(N)=O)NC(=O)[C@H](CCCNC(=N)N)NC(=O)[C@H](CCCNC(=N)N)NC(=O)[C@@H]2CCCN2C1=O [Arb_cyclic_G7],9.26
13,CCCC[C@H](NC(=O)[C@H](CCCNC(=N)N)NC(C)=O)C(=O)N[C@H]1CSSC[C@@H](C(=O)N[C@@H](CCCNC(=N)N)C(=O)N[C@@H](CCC(N)=O)C(=O)N[C@H](C(=O)N[C@@H](CC(C)(C)C)C(=O)O)C(C)(C)C)NC(=O)[C@H](C)NC(=O)[C@@H]2CCCN2C(=O)[C@H](CO)NC(=O)[C@H](CCCNC(=N)N)NC(=O)[C@H]([C@@H](C)CC)NC(=O)[C@@H]2CCCN2C(=O)CNC1=O [Arb_cyclic_G10],112
14,"CCCC[C@@H]1NC(=O)[C@H](CCCNC(=N)N)NC(=O)[C@H](Cc2c[nH]cn2)NC(=O)[C@H]([C@@H](C)O)NC(=O)[C@H]([C@@H](C)O)NC(=O)[C@@H](NC(=O)[C@H](CO)NC(=O)[C@H](CCCNC(=N)N)NC(C)=O)CSSC[C@@H](C(=O)N[C@@H](CCCNC(=N)N)C(=O)N[C@@H](CCC(N)=O)C(=O)N[C@H](C(=O)N[C@@H](CC(C)(C)C)C(=O)O)C(C)(C)C)NC(=O)[C@H]([C@@H](C)O)NC(=O)[C@H](C)NC1=O [Arb_cyclic_G14, RSCTTHR(Nle)ATCRQ(B13)(F02)]",50.9
15,"CCCC[C@@H]1NC(=O)[C@H](CCCNC(=N)N)NC(=O)[C@H](CCC(N)=O)NC(=O)[C@H](CC(N)=O)NC(=O)[C@H](CCC(=O)O)NC(=O)[C@@H](NC(=O)[C@H](Cc2c[nH]c3ccccc23)NC(=O)[C@H](CCCNC(=N)N)NC(C)=O)CSSC[C@@H](C(=O)N[C@@H](CCCNC(=N)N)C(=O)N[C@@H](CCC(N)=O)C(=O)N[C@H](C(=O)N[C@@H](CC(C)(C)C)C(=O)O)C(C)(C)C)NC(=O)[C@H](C(C)C)NC(=O)[C@H]([C@@H](C)O)NC1=O [Arb_cyclic_G22, RWCENQR(Nle)TVCRQ(B13)(F02)]",49.2

# Same assay, conditions: male, CD-1, mouse, serum, 37° C., read-out: Murine serum stability assay, T1/2
row,Structure (SMILES),half-life [min]
1,"CCCC[C@@H]1NC(=O)[C@H](CCCCN)NC(=O)[C@H](CCCNC(=N)N)NC(=O)[C@@H](NC(=O)[C@H](Cc2ccccc2)NC(=O)[C@@H](NC(=O)[C@H](CC(N)=O)NC(=O)[C@H](CCCNC(=N)N)NC(C)=O)[C@@H](C)CC)CSSC[C@@H](C(=O)N[C@@H](CCC(=O)O)C(=O)N[C@@H](CCCNC(=N)N)C(=O)N[C@@H](CCC(N)=O)C(=O)N[C@H](C(=O)N[C@@H](CC(C)(C)C)C(=O)O)C(C)(C)C)NC1=O [Arb_cyclic_D24, RNIFCRK(Nle)CERQ(B13)(F02)]",80.7
2,CC(=O)N[C@@H](CCCNC(=N)N)C(=O)N[C@H](C(=O)N[C@H]1CSSC[C@@H](C(=O)N[C@@H](CCCNC(=N)N)C(=O)N[C@@H](CCC(N)=O)C(=O)N[C@H](C(=O)N[C@@H](CC(C)(C)C)C(=O)O)C(C)(C)C)NC(=O)[C@H](C)NC(=O)[C@@H]2CCCN2C(=O)[C@H](CC(N)=O)NC(=O)[C@H](CCCNC(=N)N)NC(=O)[C@H](CC(C)C)NC(=O)[C@H](Cc2c[nH]cn2)NC(=O)[C@H](CC(N)=O)NC1=O)[C@@H](C)O [Arb_cyclic_G15],19.3
3,"CCCC[C@@H]1NC(=O)[C@H](CCCNC(=N)N)NC(=O)[C@H](Cc2c[nH]cn2)NC(=O)[C@H](CC(N)=O)NC(=O)[C@H](C)NC(=O)[C@@H](NC(=O)[C@@H](NC(=O)[C@H](CCCNC(=N)N)NC(C)=O)C(C)C)CSSC[C@@H](C(=O)N[C@@H](CCCNC(=N)N)C(=O)N[C@@H](CCC(N)=O)C(=O)N[C@H](C(=O)N[C@@H](CC(C)(C)C)C(=O)O)C(C)(C)C)NC(=O)[C@H]([C@@H](C)O)NC(=O)[C@H](CC(N)=O)NC1=O [Arb_cyclic_G16, RVCANHR(Nle)NTCRQ(B13)(F02)]",11.2
